Experimental data from US5871779A, “Treatment of arthropathies with vanadate compounds or analogues thereof” (Mount Sinai Hospital Corporation, priority 1996, dated 1999).
Several values for one entry are separate records, joined by “and”; a condition that tells them apart may be missing. Identical values can stand only once.

Assays:
collagenase = collagenase production by chondrocytes (ELISA); assay type: cell-based, bovine; details: summary statement
Procedure: The effect of orthovanadate and N-acetylcysteine on fos, jun and collagenase expression were examined. Bovine articular chondrocytes were isolated and plated as previously described (Kandel R. A. et al. Biochim. Biophys. Acta. 1053, 130-134, 1990). In order to determine the effect of orthovanadate on IL 1 and PMA (phorbol ester) induced responses, chondrocytes were incubated with orthovanadate (100 μM) for 2 hours before stimulation with IL 1 (10 ng/ml) or PMA ([…]). Collagenase production was determined by incubating chondrocytes for 24 hours with IL 1 or PMA and the cell conditioned medium was assayed for collagenase activity using an ELISA procedure as described previously (Kandel et al. supra). PLA2 activity was measured by incorporating ^3 H-arachidonic acid (^3 H-AA) into the cells and then incubating the cells with medium containing 1 mg/ml BSA, either alone or in the presence of IL 1 or PMA, for 10 min. as previously described (Conquer, J. A. […], Biochim. Biophys. Acta. 1134, 1-6). The amount of ^3 H-AA liberated into the supernatant was determined. To measure PGE2 production, chondrocytes were incubated for 6 hours in Ham's F12 medium, either alone or with IL 1 or PMA. The supernatant was analyzed by RIA using an antibody specific for PGE2 (Dr. S. A. Jones, Mount Sinai Hospital, Toronto, Canada). In order to examine the expression of c-fos and c-jun, chondrocytes were incubated for 1 hour in the presence of IL-1, PMA or AA (3 μM). Chondrocytes were washed in PBS and the total RNA extracted as previously described (Cruz. et al, 1991, Biochem. J. 277, 327-330). RNA samples were run on formaldehyde agarose gels and transferred to nylon membrane for northern analysis using cDNA probes for c-fos and c-jun.

[1] = test system: proliferating chondrocytes; assay: viability / proliferation of proliferating chondrocytes (low cell density); assay type: cell-based; details: summary statement
Procedure: In order to compare the effect of orthovanadate on non-proliferating and proliferating chondrocytes, chondrocytes were plated at both high cell density (2×10^6 to 4×10^6 cells/per well on a six well plate) (nonproliferating) and at a lower cell density (5×10^5 to 1×10^6 cells/per well on a six well plate) (proliferating) and then maintained for 48 hours. The cells were then incubated in media (HAMS F12) containing 0-50 μM Orthovanadate for an additional 48 hours. The cells were harvested and the number of viable cells determined.

P388 (WT) = assay: MTT cytotoxicity assay, P388 (WT); assay type: cell-based, murine; details: P388 (WT), 72 hours; read-out: IC50 Value
Procedure: (§1) The relative cytotoxicity of various compounds on tumor cell lines was investigated as follows. Cytotoxicity was measured by the MTT microculture tetrazolium colorimetric assay for all cell lines. The relative cytotoxicity of Na3 VO4 and VOSO4 was investigated using the following tumor cell lines: P388(WT) murine leukemia, P388 (ADR) murine leukemia, Lewis murine lung, MCF7 (WT) human breast, […] human lung, K562 human erythroleukemia, A431 human epidermal, LS180 human colon and SK-OV-3 human ovarian. The relative cytotoxicity of doxorubicin, Na3 VO4 and VOSO4 was investigated using the following tumor cell lines: P388(WT) murine leukemia, P388 (ADR) murine leukemia, MCF7(WT) human breast and MCF7 (ADR) human breast. The relative cytotoxicity of BMOV, BEOV and naglivan was investigated using the following tumor cell lines: P388(WT) murine leukemia, P388 (ADR) murine leukemia, Lewis murine lung, H460 human lung, K562 human erythroleukemia, and SK-OV-3 human ovarian.
(§2) The cells were plated (number of cells/well was different from cell line to cell depending on the dividing rate) in a 96-well microculture plate 24 hours prior to the delivery of the vanadium compounds. Serial concentrations of solutions of the test compounds (0.05-100 μM) were delivered to the corresponding wells. A blank column (without cells) and a control column (with cells without vanadium) were left. The cells were incubated for 72 hours continuously. An MTT solution was added to each well after this incubation period and the cells were incubated for 4 more hours for the completion of the dyeing process. The medium was removed find DMSO was added to each well. The absorbance of each well was read with a Titertek Multiskan (310C) spectrophotometer at 570 nm. The percentage of the absorbance of each vanadium concentration relative to the control calculated and the value of the 50% growth inhibition concentration (IC50) was obtained from the % control versus concentration plot. Each assay was repeated three times and the reported IC50 values were the mean of these three runs.

P388 (ADR) = assay: MTT cytotoxicity assay, P388 (ADR); assay type: cell-based, murine; details: P388 (ADR), 72 hours; read-out: IC50 Value
Procedure: as §1, §2

Lewis lung = assay: MTT cytotoxicity assay, Lewis lung; assay type: cell-based, murine; details: 72 hours
Procedure: as §1, §2

H460 = assay: MTT cytotoxicity assay, H460; assay type: cell-based, human; details: H460, 72 hours
Procedure: as §1, §2

K562 = assay: MTT cytotoxicity assay, K562; assay type: cell-based, human; details: K562, 72 hours
Procedure: as §1
as §2, with “Serial concentrations of solutions of the test compounds (0.05-100 μM) were delivered to the corresponding wells.” left out

SK-OV-3 = assay: MTT cytotoxicity assay, SK-OV-3; assay type: cell-based, human; details: SK-OV-3, 72 hours
Procedure: as §1, §2

MDAY-2D tumor [2] = assay: BEOV and N-acetylcysteine on tumor growth (Example 21); assay type: in vivo, mice; parameters: unit not given here; details: for Tumour weight: individual mice
Procedure: The effectiveness of BEOV in reducing tumor growth was investigated and the effective concentration required for inhibiting tumor growth was determined as follows.
(§3) Forty mice were subcutaneously injected with 100 μl of MDAY-2D tumor cell suspension (8×10^6 /100 μl)on day 1. On day 6, the mice were randomly divided into […] groups and injected following drugs twice a day. The […] groups were as follows: Group 1: 100 μl of PBS; Group 2: 100 μl of 2% NAC(ip) and 0.1 mg BEOV in 100 μl BS; Group 3: 100 μl of 2% NAC(ip) and 0.25 mg BEOV in 100 μl PBS; and Group 4: 100 μl of 2% NAC(ip) and 0.5 mg BEOV in 100 μl PBS. On injection day 9, the mice were sacrificed and the tumors dissected.

[3] = body weight of mice, BEOV and N-acetylcysteine (Example 21); assay type: in vivo; parameters: Body weight / Body weight, Average: unit not given here; details: for Body weight: individual mice; for death of animal: mouse 5
Procedure: as §3

carcinogenesis = details: G. Shklar et al.; cited from earlier work
MDAY-2D tumor [4] = assay: ammonium bisvanadate and N-acetylcysteine on tumor growth (Example 22); assay type: in vivo, mice; parameters: Tumour weight: unit not given here; details: for Tumour weight: individual mice
Procedure: Forty mice were subcutaneously injected with MDAY-2D tumor cells (8×10^5 /100 μl) on day 1. On day 6, the mice were randomly divided into six groups and injected with the following drugs twice a day: Group 1: 100 μl of PBS; Group 2: 100 μl of 2% NAC(ip) and 0.1 mg ammonium bisvanadate in 100 μl PBS; Group 3: 100 μl of 2% NAC(ip) and 0.25 mg ammonium bisvanadate in 100 μl PBS; Group 4;100 μl of 2% NAC(ip) and 0.5 mg ammonium bisvanadate in 100 μl PBS; Group 5: 100 μl of 2% NAC (ip) and 0.75 mg ammonium bisvanadate in 100 μl PBS and; Group 6: 100 μl of 2% NAC (ip) and 1.0 mg ammonium bisvanadate.
On injection day 11 the mice were sacrificed and the tumors dissected. […] The effective concentrations of the vanadate complexes are from 0.25mg/100 μl and 0.5 mg/100 μl.

MDAY-D2 cells = assay: viability of MDAY-D2 cells; assay type: cell-based, mouse; details: 0-50 μM, 48 hours, three forms compared
Procedure: Fos and jun activity are also required for cellular proliferation in many tumor cell lines. Accordingly, the effect of orthovanadate on adherent cells and cell suspensions were examined. MDAY-D2 (a mouse lymphoid cell line grown in suspension) and HTB14 cells (an adherent human primary astrocytoma cell line) were incubated in media containing 0-50 μM orthovanadate for 48 hours. The cells were harvested and the number of viable cells determined.
Three different forms of vanadyl compounds were examined for their effect on viability of cancer cell lines. MDAY-D2 cells were incubated in media containing 0-50 μM orthovanadate, vanadyl sulphate, or vanadyl hydroperoxide for 48 hours. The cells were harvested and the number of viable cells determined. […] Although there were slight differences in sensitivity, the overall cell death was similar.

MDAY-D2 tumor = MDAY-D2 tumor growth in vivo, orthovanadate, vanadyl sulphate, vanadyl hydroperoxide (Example 6B); parameters: species or system mice
Excerpt: In order to examine the ability of vanadyl compounds to reduce tumor formation, growth and metastases, a specific animal model which allows investigation of all of these processes in the same animal was chosen. This model involves the injection of a metastatic haematopoietic cell line, MDAY-D2, into mice subcutaneously. These cells form a tumor at the site of injection and its size can be easily determined. In addition, these cells metastasize to the liver and metastases can be detected histologically after day 17 to 19. This model provides a very sensitive and reproducible approach to investigate the effect of vanadyl compounds on tumor growth and metastases.
In a separate experiment using the same animal model, the effect of orthovanadate, vanadyl sulphate and vanadyl hydroperoxide administration on tumor growth in vivo was examined. On Day 1, 20 mice were injected with 2×10^5 MDAY-D2 cell subcutaneously. The mice were divided into four groups of five mice. At day 5, the animals were injected subcutaneously with 50 μl of water alone or containing 10 mg/ml of orthovanadate, 10 mg/ml of vanadyl sulphate, or 10 mg/ml of vanadyl hydroperoxide. This treatment was continued daily for 16 days. At day 21, the mice were sacrificed and the tumors dissected and weighed.

## CCc1occc(=O)c1[O][V](=[O])[O]c1c(CC)occc1=O [BEOV, bis(ethylmaltolato) oxovanadium]
collagenase
  production of metalloproteases, such as collagenase: inhibit
[1]
  proliferation of cells, such as chondrocytes: inhibit
P388 (WT)
  IC50: 82.6 µM
P388 (ADR)
  IC50: 39.8 µM
Lewis lung
  IC50: 97.4 µM
H460
  IC50: 4.4 µM
K562
  IC50: 374 µM
SK-OV-3
  IC50: 2.6 µM
MDAY-2D tumor [2]; 0.1 mg BEOV + 2% NAC
  Tumour weight, Average: 0.82
MDAY-2D tumor [2]; 0.1 mg BEOV twice a day + 2% NAC ip
  Tumour weight: 0.9 and 0.6 and 0.8 and 1.0
MDAY-2D tumor [2]; 0.25 mg BEOV + 2% NAC
  Tumour weight, Average: 0.08
MDAY-2D tumor [2]; 0.25 mg BEOV twice a day + 2% NAC ip
  Tumour weight: 0.28 and 0.0 and 0.12
MDAY-2D tumor [2]; 0.5 mg BEOV + 2% NAC
  Tumour weight, Average: 0.03
MDAY-2D tumor [2]; 0.5 mg BEOV twice a day + 2% NAC ip
  Tumour weight: 0.1 and 0.0
[3]; 0.1 mg BEOV + 2% NAC
  Body weight, Average: 16.5
  Body weight: 17.8 and 15.5 and 15.9 and 16.8
  death of animal: died
[3]; 0.25 mg BEOV + 2% NAC
  Body weight, Average: 16.02
  Body weight: 15.9 and 15.7 and 16.9 and 15.4 and 16.2
[3]; 0.5 mg BEOV + 2% NAC
  Body weight, Average: 15.25
  Body weight: 13.7 and 13.9 and 16 and 17.4
  death of animal: died

## N[C@@H](CCC(=O)N[C@@H](CS)C(=O)NCC(=O)O)C(=O)O [glutathione]
carcinogenesis
  anticancer activity: anticancer activity

## CC1=C(/C=C/C(C)=C/C=C/C(C)=C/C=C/C=C(C)/C=C/C=C(C)/C=C/C2=C(C)CCCC2(C)C)C(C)(C)CCC1 [β-carotene]
carcinogenesis
  anticancer activity: anticancer activity

## ammonium bis vanadate [ABOV]
collagenase
  production of metalloproteases, such as collagenase: inhibit
[1]
  proliferation of cells, such as chondrocytes: inhibit
MDAY-2D tumor [4]; 0.1 mg ABOV twice a day + 2% NAC ip
  Tumour weight: 0.62 and 0.19 and 0.74 and 0.53 and 0.32 and 0.50
MDAY-2D tumor [4]; 0.25 mg ABOV twice a day + 2% NAC ip
  Tumour weight: 0.25 and 0.33 and 0.54 and 0.20 and 0.0 and 0.18
MDAY-2D tumor [4]; 0.5 mg ABOV twice a day + 2% NAC ip
  Tumour weight: 0.21 and 0.50 and 0.07 and 0.34 and 0.0
MDAY-2D tumor [4]; 0.75 mg ABOV twice a day + 2% NAC ip
  death of animals: died
MDAY-2D tumor [4]; 1.0 mg ABOV twice a day + 2% NAC ip
  death of animals: died
MDAY-2D tumor [4]; with NAC
  inhibition of tumor growth: inhibited the tumor growth

## n-tocopherol
carcinogenesis
  anticancer activity: anticancer activity

## vanadyl hydroperoxide
MDAY-D2 cells
  killing of MDAY-D2 cells: equally effective
MDAY-D2 tumor; groups of five, 10 mg/ml, 50 μl daily s.c.
  animal deaths: all five died
MDAY-D2 tumor; mouse, in vivo
  efficacy in reducing tumor growth: too toxic to evaluate its efficacy

## vitamin E
carcinogenesis
  anticancer activity: anticancer activity
